The values below come from patent US11440899B2, “Pyrimidine TBK/IKKe inhibitor compounds and uses thereof” (Merck Patent GmbH, priority 2017, dated 2022).

Where a name gives a salt, the structure may show the parent alone. Where only a bound is given, the exact number is not on record here.

Experiment [1] has as its target TBK1 (Homo sapiens (Human), UniProt Q9UHD2). Nature of the experiment: TBK Biochemical Assay. The method, boiled down: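 Enzyme and substrate with compound (10-point 1:4 series, top 30 uM final, 1% DMSO) incubated 90 min at 25 °C, then stopped; substrate/product separated and read by LabChip mobility-shift, staurosporine 10 uM final as full-inhibition control.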
Experiment [2] addresses IKKe (Homo sapiens (Human), UniProt Q14164). Nature of the experiment: IKKe Biochemical Assay. The procedure, abridged: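 Human IKKε activity was measured with compounds in a 10-point 1:4 dilution series, top concentration 30 uM final, in 1% DMSO final; 10 uM staurosporine served as the control. Enzyme and substrate were incubated 90 min at 25° C, then stopped, and substrate/product peaks were separated by microfluidic mobility-shift on a LabChip EZ Reader II.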

Sequence of TBK1 (Q9UHD2 whole entry, species assumed): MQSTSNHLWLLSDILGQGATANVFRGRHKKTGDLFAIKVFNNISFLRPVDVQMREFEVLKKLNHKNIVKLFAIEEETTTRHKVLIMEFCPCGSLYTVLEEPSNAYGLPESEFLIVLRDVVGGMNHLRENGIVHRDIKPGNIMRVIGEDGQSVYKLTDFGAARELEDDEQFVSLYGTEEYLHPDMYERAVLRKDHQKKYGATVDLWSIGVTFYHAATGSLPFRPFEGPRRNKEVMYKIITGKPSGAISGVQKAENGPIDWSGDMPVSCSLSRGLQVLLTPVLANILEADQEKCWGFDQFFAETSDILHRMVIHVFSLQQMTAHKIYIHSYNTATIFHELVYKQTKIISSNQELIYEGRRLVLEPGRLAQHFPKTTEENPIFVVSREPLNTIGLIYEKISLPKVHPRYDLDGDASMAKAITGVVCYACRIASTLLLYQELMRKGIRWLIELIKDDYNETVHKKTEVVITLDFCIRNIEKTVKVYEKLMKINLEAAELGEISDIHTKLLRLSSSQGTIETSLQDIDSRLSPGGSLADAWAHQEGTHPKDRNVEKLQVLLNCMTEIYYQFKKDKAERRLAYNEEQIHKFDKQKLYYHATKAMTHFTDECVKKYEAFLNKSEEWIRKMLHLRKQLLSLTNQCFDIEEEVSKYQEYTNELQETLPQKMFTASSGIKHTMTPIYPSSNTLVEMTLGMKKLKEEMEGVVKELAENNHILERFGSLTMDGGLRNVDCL
Sequence of IKKe (Q14164 whole entry, species assumed): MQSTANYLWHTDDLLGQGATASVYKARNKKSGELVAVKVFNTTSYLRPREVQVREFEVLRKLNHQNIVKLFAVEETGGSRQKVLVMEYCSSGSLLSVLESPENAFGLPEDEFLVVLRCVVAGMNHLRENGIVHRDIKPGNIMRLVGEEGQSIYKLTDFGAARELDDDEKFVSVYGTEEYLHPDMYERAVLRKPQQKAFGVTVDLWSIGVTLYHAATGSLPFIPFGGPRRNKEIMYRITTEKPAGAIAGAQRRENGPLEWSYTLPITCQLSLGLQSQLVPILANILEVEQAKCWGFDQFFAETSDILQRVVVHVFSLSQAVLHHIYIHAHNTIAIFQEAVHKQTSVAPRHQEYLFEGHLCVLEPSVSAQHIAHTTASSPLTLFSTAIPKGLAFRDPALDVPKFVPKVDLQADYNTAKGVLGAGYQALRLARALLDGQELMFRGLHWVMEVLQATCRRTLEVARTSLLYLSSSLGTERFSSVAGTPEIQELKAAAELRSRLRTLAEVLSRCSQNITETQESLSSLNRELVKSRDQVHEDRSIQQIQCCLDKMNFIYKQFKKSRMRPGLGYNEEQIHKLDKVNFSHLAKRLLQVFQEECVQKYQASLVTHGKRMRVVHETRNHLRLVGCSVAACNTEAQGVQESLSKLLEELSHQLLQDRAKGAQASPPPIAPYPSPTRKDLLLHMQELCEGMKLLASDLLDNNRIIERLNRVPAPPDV

Take `COc1nc(Nc2cc(-c3ccc(OC4CCN(C)CC4(F)F)c(C#N)c3)ncn2)ccc1C(=O)N(C)C` (stereo not drawn) [Example 48, 6-[(6-[3-cyano-4-[(3,3-difluoro-1-methylpiperidin-4-yl)oxy]phenyl]pyrimidin-4-yl)amino]-2-methoxy-N,N-dimethylpyridine-3-carboxamide]: the IC50 in experiment [1] and in experiment [2] was less than 100 nM in each case.
With `COc1cc(Nc2cc(-c3ccc(OC4CCOCC4)c(C#N)c3)ncn2)cnc1C(=O)N(C)C` [Example 32, 5-([6-[3-cyano-4-(oxan-4-yloxy)phenyl]pyrimidin-4-yl]amino)-3-methoxy-N,N-dimethylpyridine-2-carboxamide], the IC50 in experiment [1] and in experiment [2] was 1000 to 5000 nM in each case.
With `COc1nc(Nc2cc(-c3ccc(OC4CCN(C)C4)c(C#N)c3)ncn2)ccc1C(=O)N(C)C` (stereo not drawn) [Example 39, 6-[(6-[3-cyano-4-[(1-methylpyrrolidin-3-yl)oxy]phenyl]pyrimidin-4-yl)amino]-2-methoxy-N,N-dimethylpyridine-3-carboxamide], the IC50 in experiment [1] and in experiment [2] was 100 to 1000 nM throughout.
Consider `COc1nc(Nc2cc(-c3ccc(OC4CCOCC4)c(C#N)c3)ncn2)ccc1C(=O)N1C2CCCC1COC2` [Example 90, 5-(6-[[6-methoxy-5-([3-oxa-9-azabicyclo[3.3.1]nonan-9-yl]carbonyl)pyridin-2-yl]amino]pyrimidin-4-yl)-2-(oxan-4-yloxy)benzonitrile], for which the concentration for half-maximal inhibition (IC50) in experiment [1] and in experiment [2] was less than 100 nM in each case.
Regarding `CN1CCN(c2ccc(Nc3cc(-c4ccc(OC5CCOCC5)c(C#N)c4)ncn3)nc2)CC1` [Example 29, 5-(6-[[5-(4-methylpiperazin-1-yl)pyridin-2-yl]amino]pyrimidin-4-yl)-2-(oxan-4-yloxy)benzonitrile], the concentration for half-maximal inhibition (IC50) in experiment [1] and in experiment [2] was less than 100 nM in each case.
With `COc1cc(Nc2cc(-c3ccc(OC4CCOCC4)c(C#N)c3)ncn2)ncc1C(=O)N(C)C` [Example 31, 6-([6-[3-cyano-4-(oxan-4-yloxy)phenyl]pyrimidin-4-yl]amino)-4-methoxy-N,N-dimethylpyridine-3-carboxamide], the concentration for half-maximal inhibition (IC50) in experiment [1] and in experiment [2] was less than 100 nM in each case.
For the compound `COc1nc(Nc2cc(-c3ccc(OC4CCOCC4)c(C#N)c3)ncn2)ccc1CNC1CCN(C)CC1` [Example 19, 5-[6-[(6-methoxy-5-[[(1-methylpiperidin-4-yl)amino]methyl]pyridin-2-yl)amino]pyrimidin-4-yl]-2-(oxan-4-yloxy)benzonitrile], the half-maximal inhibitory concentration (IC50) in experiment [1] and in experiment [2] was less than 100 nM throughout.
On to `COc1nc(Nc2cc(-c3cc(C#N)c(OC4CCOCC4)cn3)ncn2)ccc1C(=O)N(C)C` [Example 26, 6-([6-[4-cyano-5-(oxan-4-yloxy)pyridin-2-yl]pyrimidin-4-yl]amino)-2-methoxy-N,N-dimethylpyridine-3-carboxamide], for which the IC50 in experiment [1] and in experiment [2] was less than 100 nM throughout.
As for `COc1nc(Nc2cc(-c3ccc(OC4CCN(C(=O)[C@@H](C)O)CC4(F)F)c(C#N)c3)ncn2)ccc1C1CCN(C2COC2)CC1` (stereo partly drawn) [Example 97, 2-([3,3-difluoro-1-[(2R)-2-hydroxypropanoyl]piperidin-4-yl]oxy)-5-[6-([6-methoxy-5-[1-(oxetan-3-yl)piperidin-4-yl]pyridin-2-yl]amino)pyrimidin-4-yl]benzonitrile], the concentration for half-maximal inhibition (IC50) in experiment [1] and in experiment [2] was less than 100 nM in each case.
For the compound `COc1nc(Nc2cc(-c3ccc(OC4CCOCC4)c(C#N)n3)ncn2)ccc1N1CCN(C)CC1` [Example 22, 6-(6-[[6-methoxy-5-(4-methylpiperazin-1-yl)pyridin-2-yl]amino]pyrimidin-4-yl)-3-(oxan-4-yloxy)pyridine-2-carbonitrile], the half-maximal inhibitory concentration (IC50) in experiment [1] and in experiment [2] was 100 to 1000 nM each time.
`COc1nc(Nc2cc(-c3cnc(OC4CCOCC4)c(C#N)c3)ncn2)ccc1C(=O)N(C)C` [Example 9, 6-([6-[5-cyano-6-(oxan-4-yloxy)pyridin-3-yl]pyrimidin-4-yl]amino)-2-methoxy-N,N-dimethylpyridine-3-carboxamide hydrochloride]: the IC50 in experiment [1] and in experiment [2] was less than 100 nM in each case.
Regarding `COc1nc(Nc2cc(-c3ccc(OC4CCN(C(=O)CO)CC4(F)F)c(C#N)c3)ncn2)ccc1N1CCN(C)CC1` (stereo not drawn) [Example 59, 2-[[3,3-difluoro-1-(2-hydroxyacetyl)piperidin-4-yl]oxy]-5-(6-[[6-methoxy-5-(4-methylpiperazin-1-yl)pyridin-2-yl]amino]pyrimidin-4-yl)benzonitrile], the IC50 in experiment [1] and in experiment [2] was less than 100 nM throughout.
As to `COc1nc(Nc2cc(-c3ccc(OC4CCNCC4(F)F)c(C#N)c3)ncn2)ccc1N1CCN(C2COC2)C[C@@H]1C` (stereo partly drawn) [Example 67, 2-[(3,3-difluoropiperidin-4-yl)oxy]-5-[6-({6-methoxy-5-[(2S)-2-methyl-4-(oxetan-3-yl)piperazin-1-yl]pyridin-2-yl}amino)pyrimidin-4-yl]benzonitrile], the IC50 in experiment [1] and in experiment [2] was less than 100 nM in each case.
As for `COc1nc(Nc2cc(-c3ccc(NC4CCOCC4)c(C#N)c3)ncn2)ccc1C(=O)N(C)C` [Example 87, 6-[(6-[3-cyano-4-[(oxan-4-yl)amino]phenyl]pyrimidin-4-yl)amino]-2-methoxy-N,N-dimethylpyridine-3-carboxamide], the values for the concentration for half-maximal inhibition (IC50) in experiment [1] and in experiment [2] were less than 100 nM and 100 to 1000 nM, respectively.
Regarding `COc1nc(Nc2cc(-c3ccc(OC4CCOCC4)c(C#N)c3)ncn2)ccc1C(=O)NCCO` [Example 88, 6-([6-[3-cyano-4-(oxan-4-yloxy)phenyl]pyrimidin-4-yl]amino)-N-(2-hydroxyethyl)-2-methoxypyridine-3-carboxamide], the IC50 in experiment [1] and in experiment [2] was less than 100 nM throughout.
On to `COc1nc(Nc2cc(-c3ccc(OC4CCN(C(=O)C(C)O)CC4)c(C#N)c3)ncn2)ccc1N1CCN(C)CC1` (stereo not drawn) [Example 53, 2-[[1-(2-hydroxypropanoyl)piperidin-4-yl]oxy]-5-(6-[[6-methoxy-5-(4-methylpiperazin-1-yl)pyridin-2-yl]amino]pyrimidin-4-yl)benzonitrile], for which the IC50 in experiment [1] and in experiment [2] was less than 100 nM throughout.
As for `COc1nc(Nc2cc(-c3ccc(OC4CCN(C(=O)[C@@H](C)O)CC4(F)F)c(C#N)c3)ncn2)ccc1N1CCN(C2COC2)C[C@H]1C` (stereo partly drawn) [Example 70, 2-([3,3-difluoro-1-[(2R)-2-hydroxypropanoyl]piperidin-4-yl]oxy)-5-[6-([6-methoxy-5-[(2R)-2-methyl-4-(oxetan-3-yl)piperazin-1-yl]pyridin-2-yl]amino)pyrimidin-4-yl]benzonitrile], the IC50 in experiment [1] and in experiment [2] was less than 100 nM each time.
`COc1nc(Nc2cc(-c3ccc(OC4CN(C)C4)c(C#N)c3)ncn2)ccc1N1CCN(C)CC1` [Example 38, 5-(6-[[6-methoxy-5-(4-methylpiperazin-1-yl)pyridin-2-yl]amino]pyrimidin-4-yl)-2-[(1-methylazetidin-3-yl)oxy]benzonitrile]: the concentration for half-maximal inhibition (IC50) in experiment [1] and in experiment [2] was less than 100 nM throughout.
For `COc1nc(Nc2cc(-c3ccc(O[C@H]4CCN(C(=O)[C@@H](C)O)CC4(F)F)c(C#N)c3)ncn2)ccc1N1CCN(C2COC2)CC1` [Example 95, 2-[[(4S)-3,3-difluoro-1-[(2R)-2-hydroxypropanoyl]piperidin-4-yl]oxy]-5-[6-([6-methoxy-5-[4-(oxetan-3-yl)piperazin-1-yl]pyridin-2-yl]amino)pyrimidin-4-yl]benzonitrile], the IC50 in experiment [1] and in experiment [2] was less than 100 nM in each case.
`COc1nc(Nc2cc(-c3ccc(OC4CCN(C(=O)c5n[nH]c(C)n5)CC4)c(C#N)c3)ncn2)ccc1C(=O)N(C)C` [Example 45, 6-([6-[3-cyano-4-([1-[(5-methyl-1H-1,2,4-triazol-3-yl)carbonyl]piperidin-4-yl]oxy)phenyl]pyrimidin-4-yl]amino)-2-methoxy-N,N-dimethylpyridine-3-carboxamide]: the IC50 in experiment [1] and in experiment [2] was less than 100 nM each time.
For `COc1nc(Nc2cc(-c3ccc(OC4CCOCC4)c(C#N)c3)ncn2)ccc1N1CCN(C2COC2)CC1` [Example 100, 5-[6-({6-methoxy-5-[4-(oxetan-3-yl)piperazin-1-yl]pyridin-2-yl}amino)pyrimidin-4-yl]-2-(oxan-4-yloxy)benzonitrile], the half-inhibitory concentration (IC50) in experiment [1] and in experiment [2] was less than 100 nM each time.
In the case of `COc1nc(Nc2cc(-c3ccc(OC4CCN(C(=O)[C@H](C)O)CC4(F)F)c(C#N)c3)ncn2)ccc1N1CCN(C2COC2)C[C@H]1C` (stereo partly drawn) [Example 71, 2-([3,3-difluoro-1-[(2S)-2-hydroxypropanoyl]piperidin-4-yl]oxy)-5-[6-([6-methoxy-5-[(2R)-2-methyl-4-(oxetan-3-yl)piperazin-1-yl]pyridin-2-yl]amino)pyrimidin-4-yl]benzonitrile], the IC50 in experiment [1] and in experiment [2] was less than 100 nM each time.
With `COc1nc(Nc2cc(-c3ccc(OC4CCN(C(=O)c5cocn5)CC4)c(C#N)c3)ncn2)ccc1C(=O)N(C)C` [Example 44, 6-([6-[3-cyano-4-([1-[(1,3-oxazol-4-yl)carbonyl]piperidin-4-yl]oxy)phenyl]pyrimidin-4-yl]amino)-2-methoxy-N,N-dimethylpyridine-3-carboxamide], the 50% inhibitory concentration (IC50) in experiment [1] and in experiment [2] was less than 100 nM throughout.
In the case of `COc1nc(Nc2cc(-c3ccc(OC4CCN(C(=O)[C@H](C)O)CC4(F)F)c(C#N)c3)ncn2)ccc1N1CCN(C2COC2)C[C@@H]1C` (stereo partly drawn) [Example 72, 2-([3,3-difluoro-1-[(2S)-2-hydroxypropanoyl]piperidin-4-yl]oxy)-5-[6-([6-methoxy-5-[(2S)-2-methyl-4-(oxetan-3-yl)piperazin-1-yl]pyridin-2-yl]amino)pyrimidin-4-yl]benzonitrile], the IC50 in experiment [1] and in experiment [2] was less than 100 nM throughout.

The IC50 is the concentration needed to halve the response being measured.
